Data set [1] has as its system ARF/topoisomerase I complex. Nature of the data set: topo I immunoprecipitation followed by ARF Western in treated cells. Type of data set: cell-based, human. Conditions: H23 cells treated with CK2 activator.
For data set [2], the target named is T1, purified CK2 holoenzyme (Homo sapiens, UniProt P68400).
T1 construct: purchased Promega, Madison, Wis
The data set is described as follows: in vitro kinase assay of purified CK2 holoenzyme. Type of data set: biochemical. Particulars: 10 nM. An excerpt:
(§1) P=supercoiled plasmid only.

In data set [3] the test system is CK2. Nature of the data set: CK2 activity in nuclear extracts of treated H358 or H23 cells. It is filed as cell-based, human.
Data set [4] has as its system purified PKC. Nature of the data set: in vitro kinase assay of purified PKC. Particulars: 10 nM.
Data set [5] has as its system topoisomerase I. The data set is described as follows: topoisomerase I plasmid relaxation assay with nuclear extracts of treated cells. Type of data set: cell-based, human. Conditions: 72 hours after treatment.
Experimental: Topoisomerase I Assays: Assays were carried out using the Topoisomerase I Assay Kit (Topogen, Florida), according to the instructions provided with the kit and using the high salt nuclear extracts prepared as described above. […] The reaction was stopped by adding stop loading dye supplied in the kit and electrophoresed on a 1% agarose/TAE (10 mM TRIS-acetate/1 mM EDTA) gel until the dye front had reached the bottom of the gel. The gel was then stained for 20 minutes in 0.5 μg/mL ethidium bromide, destained in deionized water for 30 minutes, and electrophoresed for an additional hour to enhance band visibility. The gel was photographed and band intensities were analyzed digitally using a Kodak digital camera and analysis software. Some assays were carried out with alkaline phosphatase-treated extracts, prepared as described below, or in the presence of ARF or ARF1β thioredoxin fusion proteins (3, 9, 27 ng), prepared as described above (see pull-down assays).
The test system of data set [6] is PKC. Nature of the data set: endogenous PKC activity in lysates of treated H23 cells. Particulars: H23 cells treated with 10 nM, three day assay.
Data set [7] deals with T2, CK2α catalytic subunit (Homo sapiens, UniProt P68400).
T2 construct: purchased Active Motif, Carlsbad, Calif
Nature of the data set: in vitro kinase assay of purified CK2α catalytic subunit. Particulars: 10 nM. It is filed as biochemical.
Excerpt: as §1

The target of data set [8] is T3, cdk1 (Homo sapiens, UniProt P06493). The data set is described as follows: endogenous cdk1 activity in lysates of treated H23 cells. Type of data set: cell-based. Details: endogenous in cells; host or cells: H23 cells (lysates). Particulars: H23 cells treated with 10 nM, three day assay.
Excerpt: as §1
Target sequence in this assay (P06493 whole entry): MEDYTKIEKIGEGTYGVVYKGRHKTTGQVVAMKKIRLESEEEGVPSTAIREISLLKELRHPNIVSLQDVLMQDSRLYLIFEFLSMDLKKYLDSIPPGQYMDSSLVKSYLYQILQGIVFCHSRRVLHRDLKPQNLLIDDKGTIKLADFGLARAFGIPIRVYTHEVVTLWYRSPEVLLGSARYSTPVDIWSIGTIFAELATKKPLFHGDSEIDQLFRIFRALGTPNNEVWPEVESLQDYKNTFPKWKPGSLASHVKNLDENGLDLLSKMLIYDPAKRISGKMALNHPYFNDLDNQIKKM
Target sequence in this assay (P14635 whole entry partner): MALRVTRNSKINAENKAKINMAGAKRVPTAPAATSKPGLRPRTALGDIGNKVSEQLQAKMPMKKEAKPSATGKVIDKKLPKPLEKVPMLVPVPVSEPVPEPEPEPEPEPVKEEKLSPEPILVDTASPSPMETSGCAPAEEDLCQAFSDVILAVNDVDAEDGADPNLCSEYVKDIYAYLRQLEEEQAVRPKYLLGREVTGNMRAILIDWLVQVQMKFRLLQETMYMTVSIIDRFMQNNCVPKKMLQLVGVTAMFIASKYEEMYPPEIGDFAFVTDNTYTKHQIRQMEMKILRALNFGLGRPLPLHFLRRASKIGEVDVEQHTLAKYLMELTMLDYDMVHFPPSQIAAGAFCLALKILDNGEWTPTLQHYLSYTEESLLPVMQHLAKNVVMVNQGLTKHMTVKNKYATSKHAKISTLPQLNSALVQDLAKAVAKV

Data set [9] has as its system CK2α transcription. The data set is described as follows: RT-PCR of CK2α mRNA in treated H23 cells. Conditions: 10 nM, 3 days.
The target in data set [10] is T4, purified cdk1 (Homo sapiens, UniProt P06493).
T4 construct: purchased Enzo Life Sciences, Farmingdale, N.Y
The data set is described as follows: in vitro kinase assay of purified cdk1. Conditions: 10 nM. It is filed as biochemical.
Excerpt: as §1

Data set [11] relates to H23 cells. Nature of the data set: cell viability assay with camptothecin, H23. Type of data set: cell-based, human. Here is the method: (§2) Control cells received no pretreatment. […] CK2 activator treatment was for the duration of the assay. Cell viability was scored 3 days post-start of camptothecin treatment.
(§3) Viability assays were performed 24 hours post-vector treatment by exposing cells for 24 hours to increasing doses of camptothecin (a topoisomerase I inhibitor) in triplicate in a 96-well viability assay, and assaying them for viability 5 days post-start of vector treatment (FIG. 5B). For each growth curve, cell viabilities were normalized to the viability of cells treated with vector only (no camptothecin), to enable a direct visualization of the sensitization effect.
Studies of a large panel of cell lines have shown that cell lines with overexpressed CK2 (FIGS. 11B1-B3 and 11C1-C3) display hyper serine phosphorylation of topo I (FIG. 11D) that correlates with sensitivity to camptothecin (FIG. 11A). […] Cells were plated at 2000 cells per well and allowed to attach. Triplicate wells were then treated with the indicated doses of camptothecin for 18 hours, and monitored for viability 3 days post-start of treatment. Viability is represented as a % of control, untreated, cell viability. Referring to FIGS. 11B1-B3, PKC (B1), cdk1 (B2), and CK2 (B3) levels in cancer cell lines: Cell lysates were prepared from the indicated cancer cell lines and assayed for enzymatic activities, or evaluated by Western analysis for total PKC, cdk1, or CK2 protein levels. Actin levels served as a control (same control for PKC, cdk1, and CK2). Referring to FIGS. 11C1-C3 PKC (C1), cdk1 (C2), and CK2 (C3) levels in normal cell lines, compared to H358 and H23: Cell lysates were prepared from the indicated cell lines and evaluated as before. Numbers below Western blots indicate digital reading of band intensities of PCK, cdk1, or CK2 Western blots, relative to H358. Referring to FIG. 11D, topo-I immunoprecipitation followed by topo-I Western (top row) or phosphoserine Western (bottom row). Numbers below Western blot are digital readings of ser-P band intensities relative to H358.

The target in data set [12] is T5, CK2 protein (α subunit) (Homo sapiens, UniProt P68400).
T5 construct: endogenous in cells; host or cells: H23 cells (lysates)
Nature of the data set: Western analysis of CK2 protein in lysates of treated cells. Particulars: H23 cells, 72 hours. Type of data set: cell-based.

In data set [13] the test system is topo I serine phosphorylation. Nature of the data set: topo I immunoprecipitation followed by phosphoserine Western in treated cells. Conditions: digital quantitation of band intensities.
In data set [14] the test system is topo I phosphoserine 506 epitope. The data set is described as follows: Western of phosphoserine 506 epitope of topo I in treated cells. It is filed as cell-based, human.
Data set [15] has as its target T3, cdk1. Conditions: cited from earlier work.
Target sequence in this assay (P06493 whole entry, species assumed): as the sequence (P06493 whole entry) above
Target sequence in this assay (P14635 whole entry partner, species assumed): as the sequence (P14635 whole entry partner) above
Data set [16] concerns PKC. Particulars: cited from earlier work.
The subject of data set [17] is H358 cells. The data set is described as follows: cell viability assay with camptothecin, H358. Conditions: pretreatment then camptothecin 18 hours, 3-day viability. It is filed as cell-based, human. The procedure: as §2, §3
Studies of a large panel of cell lines have shown that cell lines with overexpressed CK2 (FIGS. 11B1-B3 and 11C1-C3) display hyper serine phosphorylation of topo I (FIG. 11D) that correlates with sensitivity to camptothecin (FIG. 11A). […] Triplicate wells were then treated with the indicated doses of camptothecin for 18 hours, and monitored for viability 3 days post-start of treatment. […] Referring to FIGS. 11B1-B3, PKC (B1), cdk1 (B2), and CK2 (B3) levels in cancer cell lines: Cell lysates were prepared from the indicated cancer cell lines and assayed for enzymatic activities, or evaluated by Western analysis for total PKC, cdk1, or CK2 protein levels. […] Numbers below Western blot are digital readings of ser-P band intensities relative to H358.

T1 sequence (P68400 whole entry): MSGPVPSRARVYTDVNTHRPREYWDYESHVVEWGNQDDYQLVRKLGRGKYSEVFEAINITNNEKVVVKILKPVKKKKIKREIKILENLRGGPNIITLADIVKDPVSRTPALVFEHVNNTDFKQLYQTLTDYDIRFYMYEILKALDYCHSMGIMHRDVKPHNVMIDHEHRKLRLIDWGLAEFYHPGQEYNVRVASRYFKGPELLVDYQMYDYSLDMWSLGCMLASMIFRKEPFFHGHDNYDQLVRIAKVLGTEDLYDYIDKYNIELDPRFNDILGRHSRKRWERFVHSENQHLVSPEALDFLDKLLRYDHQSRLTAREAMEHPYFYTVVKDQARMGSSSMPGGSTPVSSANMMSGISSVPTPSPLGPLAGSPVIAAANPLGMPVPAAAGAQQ
T1 sequence (P67870 whole entry partner): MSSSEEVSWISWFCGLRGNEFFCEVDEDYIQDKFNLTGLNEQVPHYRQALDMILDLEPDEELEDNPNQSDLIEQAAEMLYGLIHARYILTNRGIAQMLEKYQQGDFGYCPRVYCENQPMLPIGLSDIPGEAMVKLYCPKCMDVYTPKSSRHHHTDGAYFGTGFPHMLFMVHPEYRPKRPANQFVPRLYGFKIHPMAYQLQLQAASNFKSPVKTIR
T5 sequence (P68400 whole entry): as the sequence (P68400 whole entry) above
T2 sequence (P68400 whole entry): as above
T4 sequence (P06493 whole entry, species assumed): as the sequence (P06493 whole entry) above
T4 sequence (P14635 whole entry partner, species assumed): as the sequence (P14635 whole entry partner) above

Consider `CCn1cnc(C(N)=O)c1C(N)=O` [CK2 activator], for which, in [1], the “p14ARF/topo I complex formation” value is “complex formation occurs”. Also, the “stimulation of purified CK2 holoenzyme activity” value in [2] is reported as ~6 fold. The “increase in CK2 activity relative to untreated cells” value in [3] (H23 cells, 10 nM for duration of assay) turned out to be 4 fold. Further, in [3] (H358 cells, similar treatment (data not shown)), the “increase in CK2 activity” value was 10%. Also, the “effect on purified PKC activity” value in [4] is “no effect”. Moreover, in [5] (H23 cells, 0.75 μg lysates protein per reaction), the “conversion of supercoiled plasmid to relaxed form by nuclear extract” value is listed as “converts virtually all of the supercoiled form to relaxed form”. In addition, the “effect on endogenous PKC activity” value in data set [6] is “no effect”. The “stimulation of CK2α catalytic subunit activity” value in data set [7] was ~6 fold. Also, the “effect on endogenous cdk1 activity” value in data set [8] was “no effect”. For the same compound, the CK2α transcription entry in data set [9] is “not CK2α transcription”. The “effect on purified cdk1 activity” value in data set [10] was “no effect”. Also, the “effect on cell viability (activator alone)” value in data set [11] (10 nM) was “no effect on cell viability”. The “change of cellular response to camptothecin” value in data set [11] (10 nM activator for duration of assay, camptothecin 18 hours, 3-day viability) is “more sensitive to camptothecin”. For the same compound, the “lowest dose that could activate CK2 while having no effect on cell viability” value in data set [11] (range of 5-100 nM tested) came out at 10 nM. The CK2 protein accumulation entry in data set [12] is “enhances the accumulation of CK2 protein”. The “increase in topo I phosphorylation relative to untreated H23 cells” value in data set [13] (H23 cells) is ~4.7 fold. In addition, the “cellular levels of the phosphoserine 506 epitope” value in data set [14] (H23 cells treated as in FIG. 13B) was “induces cellular levels of the phosphorylated epitope”.

In the case of `Brc1c(Br)c(Br)c2[nH]nnc2c1Br` [TBB, 4,5,6,7-tetrabromobenzotriazole], the “effect on cdk1” value in [15] is on record as “minimal effects”. The “conversion of supercoiled plasmid to relaxed form by nuclear extract” value in [5] (H358 cells, 0.75 μg lysate per reaction) is “essentially none is converted”. Further, the “effect on PKC” value in data set [16] is “minimal effects”. Moreover, the “topo I serine phosphorylation, % of untreated H358 cells” value in data set [13] (H358 cells) is “about 10%”. Besides, the “change of cellular response to camptothecin” value in [17] is “more resistant to camptothecin”. The “cellular levels of the phosphoserine 506 epitope” value in data set [14] (H358 cells treated as in FIG. 13A) was “suppresses cellular levels of the phosphoserine epitope”.

The record behind these values is patent US9115385B2, “Methods and compositions for topoisomerase I modulated tumor suppression” (RG BIOPHARMA, LLC, priority 2006, dated 2015).
